In patent US20120273764A1, “COMPOSITION FOR ORGANIC PHOTOELECTRIC DEVICE, ORGANIC PHOTOELECTRIC DEVICE USING THE SAME, AND DISPLAY DEVICE INCLUDING THE SAME” (CHEIL INDUSTRIES, INC., priority 2009, published 2012):

Test: Solubility evaluation in organic solvent
Format: physicochemical
Conditions: for Solubility Chlorobenzene / Solubility Toluene: 30 mg compound made up to 1.0 g solution, rolled at room temperature for 1 hour, 0.2 μm syringe filter
Protocol: An organic solvent was added to 30 mg of each compound, and mixed until the total weight of each solution became 1.0 g. The mixture was rolled at room temperature for 1 hour, and then filtered with a syringe filter (Acrodisc Company) whose average pore diameter was 0.2 μm. Herein, solubility and film-forming properties were compared based on CBP, which is a generally-used host compound.
(1) Solubility Evaluation Method: solubility was determined by removing the filtered solution of the solvent and measuring the mass of the remaining solid, and the result is shown in the following Table 1. […]

| Solubility Chlorobenzene (chlorobenzene) | Solubility Toluene (toluene) | Solubility in chlorobenzene (in words) (chlorobenzene) | Solubility in toluene (in words) (toluene) | Compound |
| --- | --- | --- | --- | --- |
| equal to 3 wt % | equal to 3 wt % |  |  | c1ccc(-c2nnc(-c3ccc(-c4ccc5c(c4)C4(c6ccccc6-c6ccccc64)c4ccccc4-5)cc3)o2)cc1 [Chem. Form. 43] |
| equal to 3 wt % | equal to 3 wt % |  |  | c1ccc(-n2c3ccccc3c3ccc4c5ccccc5n(-c5ccccc5)c4c32)cc1 [Chem. Form. 38] |
| equal to 3 wt % | equal to 3 wt % |  |  | c1ccc(-n2c3ccccc3c3c4c5ccccc5n(-c5ccccc5)c4ccc32)cc1 [Chem. Form. 20] |
| equal to 3 wt % | equal to 3 wt % |  |  | c1cncc(-c2nnc(-c3cc(-c4ccc5c(c4)C4(c6ccccc6-c6ccccc64)c4ccccc4-5)cc(-c4ccc5c(c4)C4(c6ccccc6-c6ccccc64)c4ccccc4-5)c3)o2)c1 [Chem. Form. 44] |
| 1 wt % | equal to 0.5 wt % | part of the CBP was dissolved | little CBP was dissolved | c1ccc2c(c1)c1ccccc1n2-c1ccc(-c2ccc(-n3c4ccccc4c4ccccc43)cc2)cc1 [CBP, 4,4-N,N-dicarbazolebiphenyl, reference compound] |
